The test deals with T1, CFTR channels (Homo sapiens, UniProt P13569).
T1 construct: 1835; Cap1; TEV; Yes; XBG; 53; expressed in transfected cells; host or cells: FRT (Fischer rat thyroid) cells in air-liquid interface culture, transfected with unformulated hCFTR mRNA
In words: Transepithelial conductance (Gt) in Air-Liquid Interface culture of transfected FRT cells. In kind it is cell-based. As to conditions: FRT cells transfected with constructs 2099.1 and 1835.1 (FIG. 12); sequential Forskolin, VX770, Inh-172. The procedure: Further studies were conducted to assess the activity of hCFTR proteins expressed by selected mRNA constructs and whether these can properly open and close to allow proper ion transport. In these studies, an Air-Liquid Interface (ALI) cell culture model of FRT cells was used to transfect an unformulated subset of codon-optimized hCFTR mRNAs at different doses ranging from 0.5 μg-2 μg of mRNA (the 2 μg dose is not shown) into the FRT cells. ALI is a method of cell culture by which polarized cells are generated with their basal surfaces in contact with media, and the top of the cellular layer is exposed to the air. This model helps to mimic the cellular structure of in vivo airways.
At 24 hours post-transfection, transepithelial conductance (Gt) of the cells over time was measured as an indicator of CFTR activity. Initially, Gt was measured with the transfected or control cells unperturbed. Then, a sequential process of CFTR activation (channel opening), enhancement (gating promotion) and closing of the CFTR channels was performed. The hCFTR constructs used in this study were 1835.1 (SEQ ID NO: 53), 2093.1 (SEQ ID NO: 66), 2095.1 (SEQ ID NO: 68), 2096.1 (SEQ ID NO: 69), and 2099.1 (SEQ ID NO: 72). In addition, controls were performed using a reference sequence of construct 764.1 (SEQ ID NO: 47) and untransfected cells. […]

T1 sequence (P13569 whole entry): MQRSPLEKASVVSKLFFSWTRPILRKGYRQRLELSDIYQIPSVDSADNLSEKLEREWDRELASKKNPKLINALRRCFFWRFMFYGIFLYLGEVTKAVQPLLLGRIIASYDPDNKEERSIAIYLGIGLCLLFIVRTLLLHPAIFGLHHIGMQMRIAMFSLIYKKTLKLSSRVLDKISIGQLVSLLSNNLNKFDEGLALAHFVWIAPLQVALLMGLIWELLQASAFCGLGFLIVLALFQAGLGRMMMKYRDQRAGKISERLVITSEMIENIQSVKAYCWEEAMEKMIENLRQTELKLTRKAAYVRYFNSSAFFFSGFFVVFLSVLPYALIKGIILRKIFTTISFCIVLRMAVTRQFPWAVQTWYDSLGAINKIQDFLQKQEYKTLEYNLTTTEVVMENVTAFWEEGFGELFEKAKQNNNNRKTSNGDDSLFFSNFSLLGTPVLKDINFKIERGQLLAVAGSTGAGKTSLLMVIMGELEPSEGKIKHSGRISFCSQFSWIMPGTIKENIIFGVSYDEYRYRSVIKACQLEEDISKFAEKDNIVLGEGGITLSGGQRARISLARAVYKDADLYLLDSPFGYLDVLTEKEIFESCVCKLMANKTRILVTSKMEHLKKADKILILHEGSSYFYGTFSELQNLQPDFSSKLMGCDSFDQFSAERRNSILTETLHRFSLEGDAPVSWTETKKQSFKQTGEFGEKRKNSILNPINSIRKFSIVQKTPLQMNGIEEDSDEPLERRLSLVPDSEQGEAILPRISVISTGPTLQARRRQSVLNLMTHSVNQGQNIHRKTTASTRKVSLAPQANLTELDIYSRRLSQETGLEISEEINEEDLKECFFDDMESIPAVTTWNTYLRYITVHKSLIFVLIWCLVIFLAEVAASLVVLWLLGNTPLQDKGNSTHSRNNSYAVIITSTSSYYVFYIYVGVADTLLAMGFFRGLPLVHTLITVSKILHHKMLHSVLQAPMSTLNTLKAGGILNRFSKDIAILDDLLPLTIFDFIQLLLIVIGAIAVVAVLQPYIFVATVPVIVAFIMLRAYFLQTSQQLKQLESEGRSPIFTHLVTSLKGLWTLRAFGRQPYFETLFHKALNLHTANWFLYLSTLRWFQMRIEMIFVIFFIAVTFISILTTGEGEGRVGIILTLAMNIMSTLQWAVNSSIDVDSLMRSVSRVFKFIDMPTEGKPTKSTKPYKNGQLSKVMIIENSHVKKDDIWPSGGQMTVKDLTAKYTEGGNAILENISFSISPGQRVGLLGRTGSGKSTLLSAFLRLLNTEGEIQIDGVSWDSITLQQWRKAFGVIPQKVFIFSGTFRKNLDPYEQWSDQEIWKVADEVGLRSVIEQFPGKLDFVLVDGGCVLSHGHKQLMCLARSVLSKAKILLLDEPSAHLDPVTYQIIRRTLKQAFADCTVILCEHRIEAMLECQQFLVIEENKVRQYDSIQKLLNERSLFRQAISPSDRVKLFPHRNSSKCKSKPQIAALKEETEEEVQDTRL

Take `O=C(O)c1ccc(C=C2SC(=S)N(c3cccc(C(F)(F)F)c3)C2=O)cc1` [Inh-172, reference compound]: the “Change in Gt on introduction of CFTR modulator” value is “decline in Gt”. With `CC(C)(C)c1cc(C(C)(C)C)c(NC(=O)c2c[nH]c3ccccc3c2=O)cc1O` [VX770, reference compound], the “Change in Gt on introduction of CFTR modulator” value was “second increase in Gt”.

The record behind these values is patent US12070509B2, “Nucleic acids and methods of treatment for cystic fibrosis” (Arcturus Therapeutics, Inc., priority 2020, dated 2024).
